Source: paper PMC5736936, “Xylopine Induces Oxidative Stress and Causes G2/M Phase Arrest, Triggering Caspase-Mediated Apoptosis by p53-Independent Pathway in HCT116 Cells” (Oxidative Medicine and Cellular Longevity, 2017)

System: HCT116 cells
Experiment: Cellular reactive oxygen species levels (DCF-DA)
Format: cell-based, human
Experimental: The levels of reactive oxygen species (ROS) were measured according to previously described using 2′,7′-dichlorofluorescin diacetate (DCF-DA) (Sigma-Aldrich Co.). In brief, cells were treated with xylopine for 1 and 3 h. Then, the cells were collected, washed with saline, and resuspended in FACS tubes with saline containing 5 μM DCF-DA for 30 min. Finally, the cells were washed with saline and the cell fluorescence was determined by flow cytometry as described above. The protection assay using the antioxidant NAC and catalase (Sigma-Aldrich Co.) was performed. In brief, the cells were pretreated for 1 h with 5 mM NAC or 2000 UI catalase and then incubated with xylopine in the established concentration for 1 h. The cells were then trypsinized and the ROS levels were measured as described above.

With `COc1ccc2c(c1)C[C@@H]1NCCc3cc4c(c-2c31)OCO4` [XYL, xylopine] the “xylopine-induced increase in intracellular ROS level on cotreatment with NAC” value (HCT116, 5 mM NAC 1 h, then 14 μM xylopine 1 h) was “prevented”, the “xylopine-induced increase in intracellular ROS levels on cotreatment with catalase” value (HCT116, 2000 UI catalase 1 h, then 14 μM xylopine 1 h) was “prevented” and the ROS levels (HCT116, DCF-DA, 1 and 3 h) was “caused an increase in the ROS levels”.
